Measured values reported in ChEMBL document CHEMBL4325859, “Research advances on anticancer activities of matrine and its derivatives: An updated overview” (Eur J Med Chem, 2019).
Values after ≈ are worked out from the molar mass of the structure shown.

How the values were obtained:
BXPC-3 = test: Induction of apoptosis in human BxPC3 cells at 0.25 mg/ml by flow cytometry (reference value: 2.81%); type: functional
A549 = test: Antiproliferative activity against human A549 cells at 1.5 g/L after 12 to 48 hrs by MTT assay relative to control; type: functional
HeLa = test: Induction of apoptosis in human HeLa cells at 25 ug/ml after 48 hrs by Annexin V-FITC/propidium iodide staining based flow cytometry relative to control; type: functional
[1] = Growth inhibition of human GRC1 cells at 0.5 g/L after 48 hrs by MTT assay relative to control; type: functional; conditions: read-out: GI
PANC-1 [2] = test: Antiproliferative activity against human PANC1 cells after 72 hrs by MTT assay; type: functional, cell-based; conditions: PANC-1, 72 h
HepG2 [3] = test: Antiproliferative activity against human HepG2 cells after 48 hrs by MTT assay; type: functional, cell-based; conditions: HepG2, 48 h
RPMI-8226 [4] = test: Growth inhibition of human RPMI8226 cells at 1000 mg/L after 48 hrs by MTT assay relative to control; type: functional; conditions: RPMI-8226, 48 h, read-out: GI
KYSE-150 cell line [5] = test: Antiproliferative activity against human KYSE-150 cells assessed as cell viability at 0.5 mg/ml after 24 hrs by MTT assay relative to control; type: functional; conditions: KYSE-150, 24 h, read-out: Activity
SGC-7901 = test: Growth inhibition of human SGC7901 cells at 60 mg/ml after 72 hrs by MTT assay relative to control; type: functional; conditions: SGC-7901, 72 h, read-out: GI
KYSE-150 cell line [6] = test: Antiproliferative activity against human KYSE-150 cells assessed as cell viability at 3 mg/ml after 24 hrs by MTT assay relative to control; type: functional; conditions: KYSE-150, 24 h, read-out: Activity
D341 cell line [7] = test: Growth inhibition of human D341 cells at 0.5 mg/ml after 72 hrs by CCK8 assay relative to control; type: functional; conditions: D341, 72 h, read-out: GI
HT-29 [8] = test: Growth inhibition of human HT-29 cells at 16 ml/L after 24 hrs by MTT assay relative to control; type: functional
Bel-7402 = test: Antiproliferative activity against human Bel7402 cells after 48 hrs by MTT assay; type: functional, cell-based; conditions: Bel-7402, 48 h
MG-63 = test: Growth inhibition of human MG63 cells at 3.2 mg/ml after 48 hrs by MTT assay relative to control; type: functional; conditions: MG-63, 48 h, read-out: GI
[9] = Growth inhibition of human GRC1 cells at 0.8 g/L after 72 hrs by MTT assay relative to control; type: functional; conditions: read-out: GI
[10] = Antiproliferative activity against human GBC-SD cells after 24 hrs by MTT assay; type: functional, cell-based
HT-29 [11] = test: Growth inhibition of human HT-29 cells at 8 ml/L after 48 hrs by MTT assay relative to control; type: functional
UMR108 [12] = test: Growth inhibition of rat UMR108 cells assessed as cell proliferation at 1 mg/ml after 24 hrs by MTT assay (reference value: 0.405 +/- 0.007%); type: functional; conditions: UMR108, 24 h, read-out: Activity
HT-29 [13] = test: Antiproliferative activity against human HT-29 cells by MTT assay; type: functional, cell-based
RPMI-8226 [14] = test: Induction of apoptosis in human RPMI8226 cells at 1.5 g/L after 48 hrs by Annexin V-FITC/propidium iodide staining based flow cytometry (Rvb < 3%); type: functional
RPMI-8226 [15] = test: Induction of apoptosis in human RPMI8226 cells at 1000 mg/L after 48 hrs by Annexin V/propidium iodide staining based flow cytometry (reference value: 3.02 +/- 1.19%); type: functional
HOS-TE85 = test: Growth inhibition of human MNNG-HOS cells after 48 hrs by MTT assay; type: functional, cell-based; conditions: HOS-TE85, 48 h
PC-3 [16] = test: Induction of apoptosis in human PC3 cells assessed as late apoptotic cells at 25 mg/mL (reference value: 2.5%); type: functional
SAOS-2 = test: Growth inhibition of human Saos2 cells at 3.2 mg/ml after 48 hrs by MTT assay relative to control; type: functional; conditions: SAOS-2, 48 h, read-out: GI
NB-4 = test: Antiproliferative activity against human NB4 cells after 24 hrs by MTT assay; type: functional, cell-based; conditions: NB-4, 24 h
UMR108 [17] = test: Growth inhibition of rat UMR108 cells assessed as cell proliferation at 1 mg/ml after 72 hrs by MTT assay (reference value: 0.403 +/- 0.009%); type: functional; conditions: UMR108, 72 h, read-out: Activity
UMR108 [18] = test: Growth inhibition of rat UMR108 cells assessed as cell proliferation at 0.5 mg/ml after 48 hrs by MTT assay (reference value: 0.404 +/- 0.008%); type: functional; conditions: UMR108, 48 h, read-out: Activity
[19] = Growth inhibition of human GRC1 cells at 1.5 g/L after 48 hrs by MTT assay relative to control; type: functional; conditions: read-out: GI
4T1 = test: Antiproliferative activity against mouse 4T1 cells after 48 hrs by MTT assay; type: functional, cell-based; conditions: 4T1, 48 h
PC-3 [20] = test: Induction of apoptosis in human PC3 cells assessed as late apoptotic cells at 50 mg/mL (reference value: 2.5%); type: functional
HepG2 [21] = test: Induction of apoptosis in human HepG2 cells at 0.5 mg/ml by Annexin V-FITC/propidium iodide staining based flow cytometry (reference value: 0.14%); type: functional
HT-29 [22] = test: Growth inhibition of human HT-29 cells at 4 ml/L after 36 hrs by MTT assay relative to control; type: functional
K562 = test: Antiproliferative activity against human K562 cells after 72 hrs by MTT assay; type: functional, cell-based; conditions: K562, 72 h
U2OS = test: Growth inhibition of human U2OS cells at 3.2 mg/ml after 48 hrs by MTT assay relative to control; type: functional; conditions: read-out: GI
HT-29 [23] = test: Growth inhibition of human HT-29 cells after 24 hrs by MTT assay; type: functional, cell-based; conditions: HT-29, 24 h
UMR108 [24] = test: Growth inhibition of rat UMR108 cells assessed as cell proliferation at 1 mg/ml after 48 hrs by MTT assay (reference value: 0.404 +/- 0.008%); type: functional; conditions: UMR108, 48 h, read-out: Activity
MCF7 = test: Induction of apoptosis in human MCF7 cells at 0.25 to 2 mg/ml (reference value: 1.1 +/- 0.08%); type: functional
[25] = Antiproliferative activity against human 95-D cells at 1.5 g/L after 12 to 48 hrs by MTT assay relative to control; type: functional
PANC-1 [26] = test: Induction of apoptosis in human PANC1 cells at 0.75 mg/ml by flow cytometry (reference value: 4.13%); type: functional
RPMI-8226 [27] = test: Induction of apoptosis in human RPMI8226 cells at 1500 mg/L after 48 hrs by Annexin V/propidium iodide staining based flow cytometry (reference value: 3.02 +/- 1.19%); type: functional
HOS = test: Growth inhibition of human HOS cells at 0.8 mg/ml after 48 hrs by MTT assay relative to control; type: functional; conditions: read-out: GI
D341 cell line [28] = test: Growth inhibition of human D341 cells at 1.5 mg/ml after 72 hrs by CCK8 assay relative to control; type: functional; conditions: D341, 72 h, read-out: GI

O=C1CCC[C@@H]2[C@H]3CCCN4CCC[C@@H](CN12)[C@@H]34 [MATRINE]
Activity (BXPC-3): 9.9%
Activity (A549): 30%
Activity (HeLa): 8.91%
inhibition of growth at 500 µg/mL [1]: 12.3%
IC50 (PANC-1 [2]): 3.66 mM
IC50 (HepG2 [3]): 3.22 mM
inhibition of growth at 1000 µg/mL (RPMI-8226 [4]): 30.4%
viability at 500 µg/mL (KYSE-150 cell line [5]): 82.2%
inhibition of growth at 60000 µg/mL (SGC-7901): 40%
viability at 3000 µg/mL (KYSE-150 cell line [6]): 29.6%
inhibition of growth at 500 µg/mL (D341 cell line [7]): 12.7%
growth inhibition (GI) (HT-29 [8]): 59.35%
IC50 (Bel-7402): 3.22 mM
inhibition of growth at 3200 µg/mL (MG-63): 86%
inhibition of growth at 800 µg/mL [9]: 25.4%
IC50 [10]: 3.6 mM
growth inhibition (GI) (HT-29 [11]): 68.29%
growth at 1000 µg/mL (UMR108 [12]): 0.298%
IC50 (HT-29 [13]): 0.0286 mM
Activity (RPMI-8226 [14]): 32.89%
Activity (RPMI-8226 [15]): 18.48%
IC50 (HOS-TE85): 3.1 mM
Activity (PC-3 [16]): 14.6%
inhibition of growth at 3200 µg/mL (SAOS-2): 70%
IC50 (NB-4): 0.00266 mM
growth at 1000 µg/mL (UMR108 [17]): 0.195%
growth at 500 µg/mL (UMR108 [18]): 0.313%
inhibition of growth at 1500 µg/mL [19]: 32%
IC50 (4T1): 1110 µg/mL (≈ 4.47 mM)
Activity (PC-3 [20]): 21%
Activity (HepG2 [21]): 28.91%
growth inhibition (GI) (HT-29 [22]): 42.48%
IC50 (K562): 1.77 mM
inhibition of growth at 3200 µg/mL (U2OS): 77%
IC50 (HT-29 [23]): 6.32 to 50.3 mM
growth at 1000 µg/mL (UMR108 [24]): 0.249%
Activity (MCF7): 4.17 - 19.63%
Activity [25]: 30%
Activity (PANC-1 [26]): 24.56%
Activity (RPMI-8226 [27]): 31.1%
inhibition of growth at 800 µg/mL (HOS): 10%
inhibition of growth at 1500 µg/mL (D341 cell line [28]): 47.5%
